Tests used:
Assay in all cases: relative viability (nuclei count vs DMSO), 5 days (fraction); higher = more cells survive
Adavosertib + Olaparib = compound: C=CCn1c(=O)c2cnc(Nc3ccc(N4CCN(C)CC4)cc3)nc2n1-c1cccc(C(C)(C)O)n1 [Adavosertib] + O=C(c1cc(Cc2n[nH]c(=O)c3ccccc23)ccc1F)N1CCN(C(=O)C2CC2)CC1 [Olaparib] (partner 8 µM)
Method in brief: (§1)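 Each reported value is a median over duplicate plates. It expresses relative viability: treated-well nuclei count divided by vehicle-well nuclei count. Lung cancer cell lines in 1536-well plates were dosed by pin tool a day after seeding, alone with one drug or with a fixed anchor-drug dose plus five library-drug doses (not always all listed) in √10 steps, and nuclei were counted after 5 days.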

Nelarabine + Vorinostat = compound: COc1nc(N)nc2c1ncn2[C@@H]1O[C@H](CO)[C@@H](O)[C@@H]1O [Nelarabine] + O=C(CCCCCCC(=O)Nc1ccccc1)NO [Vorinostat] (partner 1 µM)
Method in brief: as §1

Adavosertib + Pemetrexed = compound: C=CCn1c(=O)c2cnc(Nc3ccc(N4CCN(C)CC4)cc3)nc2n1-c1cccc(C(C)(C)O)n1 [Adavosertib] + Nc1nc2[nH]cc(CCc3ccc(C(=O)N[C@@H](CCC(=O)O)C(=O)O)cc3)c2c(=O)[nH]1 [Pemetrexed] (partner 0.2 µM)
Method in brief: as §1

Nelarabine + Pictilisib = compound: COc1nc(N)nc2c1ncn2[C@@H]1O[C@H](CO)[C@@H](O)[C@@H]1O [Nelarabine] + CS(=O)(=O)N1CCN(Cc2cc3nc(-c4cccc5[nH]ncc45)nc(N4CCOCC4)c3s2)CC1 [Pictilisib] (partner 1 µM)
Method in brief: as §1

Cell Line	relative viability (Adavosertib + Olaparib; first compound 0.01 µM)	relative viability (Adavosertib + Olaparib; first compound 0.03162 µM)	relative viability (Adavosertib + Olaparib; first compound 0.1 µM)	relative viability (Adavosertib + Olaparib; first compound 0.3162 µM)	relative viability (Nelarabine + Vorinostat; first compound 0.01 µM)	relative viability (Nelarabine + Vorinostat; first compound 0.03162 µM)	relative viability (Nelarabine + Vorinostat; first compound 0.1 µM)	relative viability (Nelarabine + Vorinostat; first compound 0.3162 µM)	relative viability (Nelarabine + Vorinostat; first compound 1 µM)	relative viability (Adavosertib + Pemetrexed; first compound 0.01 µM)	relative viability (Adavosertib + Pemetrexed; first compound 0.03162 µM)	relative viability (Adavosertib + Pemetrexed; first compound 0.1 µM)	relative viability (Adavosertib + Pemetrexed; first compound 0.3162 µM)	relative viability (Nelarabine + Pictilisib; first compound 0.01 µM)	relative viability (Nelarabine + Pictilisib; first compound 0.03162 µM)	relative viability (Nelarabine + Pictilisib; first compound 0.1 µM)	relative viability (Nelarabine + Pictilisib; first compound 0.3162 µM)	relative viability (Nelarabine + Pictilisib; first compound 1 µM)
LU99A	0.238	0.224	0.209	0.179	0.615	0.417	0.579	0.467	0.39	0.156	0.165	0.144	0.115	0.302	0.269	0.327	0.321	0.299
NCI-H661	0.779	0.828	0.721	0.449	0.862	0.951	0.702	0.761	0.727	0.915	0.834	0.74	0.415	0.345	0.362	0.462	0.388	0.354
SW 900	0.722	0.851	0.779	0.399	0.471	0.567	0.795	0.628	0.448	0.457	0.484	0.492	0.443	–	–	–	–	–
HCC-827	0.627	0.707	0.709	0.655	0.595	0.748	0.639	0.721	0.64	0.283	0.223	0.284	0.245	0.956	0.863	0.931	0.814	0.76
A-427	0.76	0.716	0.815	0.701	0.856	0.93	0.895	0.854	0.844	0.97	0.905	0.892	0.893	0.928	0.749	0.745	0.716	0.714
EBC-1	0.624	0.765	0.83	0.647	–	–	–	–	–	–	–	–	–	0.372	0.284	0.407	0.329	0.461
NCI-H2009	0.686	0.739	0.802	0.777	0.789	0.676	0.663	0.8	0.661	1.03	0.987	1.04	0.775	1.31	0.917	0.841	1.03	0.93
EPLC-272H	0.955	0.674	0.566	0.2	0.313	0.411	0.459	0.387	0.385	0.33	0.258	0.175	0.116	0.337	0.269	0.315	0.302	0.298
LC-2-ad	0.7	0.725	0.803	0.786	0.814	0.738	0.67	0.721	0.676	0.288	0.276	0.302	0.277	0.624	0.467	0.428	0.482	0.468
HCC-366	0.356	0.376	0.317	0.32	0.582	0.343	0.391	0.47	0.339	0.227	0.143	0.136	0.0818	0.165	0.122	0.152	0.196	0.132
RERF-LC-KJ	0.952	0.986	1.05	0.955	0.749	0.754	0.623	0.72	0.727	0.384	0.463	0.481	0.471	0.582	0.652	0.559	0.578	0.422
EKVX	0.756	0.841	0.783	0.833	0.81	0.667	0.585	0.817	0.788	0.426	0.374	0.309	0.362	0.547	0.373	0.359	0.508	0.474
NCI-H1395	0.561	0.547	0.409	0.438	0.757	0.706	1.16	0.755	0.666	0.766	0.938	0.604	0.689	0.729	0.646	0.659	0.694	0.618
NCI-H2342	0.497	0.561	0.492	0.524	0.933	0.753	0.806	0.74	0.728	0.754	0.826	0.764	0.844	–	–	–	–	–
NCI-H1648	0.953	0.966	1.39	0.769	–	0.761	–	0.412	0.642	0.595	0.719	0.814	0.483	–	–	–	–	–
NCI-H1563	–	–	–	–	–	–	–	–	–	0.677	0.903	0.713	0.808	0.605	0.634	0.641	0.67	0.626
A549	0.356	0.336	0.446	0.438	–	–	–	–	–	–	–	–	–	0.729	0.546	0.499	0.577	0.463
NCI-H727	0.73	0.845	0.683	0.744	1.24	1.17	1.13	1.27	1.19	–	–	–	–	0.581	0.476	0.348	0.397	0.302
NCI-H522	0.724	0.644	0.647	0.734	1.02	0.857	0.683	0.867	0.934	1.02	1.03	1.04	0.949	–	–	–	–	–
NCI-H1703	0.507	0.545	0.387	0.141	–	–	–	–	–	–	–	–	–	0.248	–	0.237	0.211	0.227
NCI-H1299	0.953	0.959	1.04	0.357	–	–	–	–	–	–	–	–	–	1.06	0.899	0.857	0.861	0.757
ABC-1	0.942	0.779	1.02	0.664	1.24	1.51	1.22	1.07	0.929	–	–	–	–	0.901	0.828	0.584	1.01	0.756

— the supplement of paper PMC10307832
